Assay results as given in US20250026741A1, “INHIBITORS OF THE ONCOGENIC SHP2 PHOSPHATASE AND USES THEREOF” (Sanford Burnham Prebys Medical Discovery Institute, priority 2021, published 2025).

Biological target: SHP2cat (Homo sapiens (Human), UniProt Q06124)
Assay: Jump dilution inhibition assay
Type: biochemical
Conditions: 10× preincubation 10 min, 10× jump-dilution
Protocol: Finally, we performed a jump-dilution experiment to test for irreversible inhibition of SHP2. #01 was preincubated for 10 min with SHP2cat at 10× inhibitor and protein concentrations, compared to a regular dose-response experiment, followed by a 10×jump-dilution, incubation for an additional 10 min, and addition of the DiFMUP substrate.
#01 was tested for reversibility of inhibition in a jump-dilution experiment using SHP2cat. A regular dose-response experiment (no jump-dilution) was performed in parallel. Working solutions of #01 in DMSO included 10, 3, 1, 0.3, 0.1, 0.03, 0.01, 0 mM for the jump-dilution experiment, and 1, 0.3, 0.1, 0.03, 0.01, 0.003, 0.001, 0 mM for the regular dose-response experiment. […] The enzyme reaction was started by the addition of 5 μL of DiFMUP working solution (100 μM in 50 mM Bis-Tris pH 6.0, 50 mMNaCl, 0.5 mM EDTA, and 0.01% Tween® 20), and fluorescence intensity was measured in kinetic mode (every minute for 10 min) using a Tecan Spark® Multimode Microplate Reader as described above. […] The initial rates were determined from the linear progression curves of the SHP2cat reaction. […] IC50 values were calculated from the corrected initial rates by nonlinear regression using the program GraphPad Prism (GraphPad Software, Inc., San Diego, CA) version 9.

Chain of SHP2cat (Q06124 248-527): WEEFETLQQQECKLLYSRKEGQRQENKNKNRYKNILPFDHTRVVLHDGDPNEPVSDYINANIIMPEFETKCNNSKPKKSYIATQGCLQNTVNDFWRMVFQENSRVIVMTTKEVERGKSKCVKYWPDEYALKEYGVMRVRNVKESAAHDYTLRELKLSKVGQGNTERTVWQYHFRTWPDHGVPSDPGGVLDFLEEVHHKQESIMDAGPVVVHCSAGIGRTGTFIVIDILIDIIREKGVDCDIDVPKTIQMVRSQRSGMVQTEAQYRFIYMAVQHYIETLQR

reversibility: jump-dilution vs regular dose-response IC50 curves: IC50 curves were practically identical
SMILES: Nc1ccc(NC(=O)c2cc(-c3ccc(/C=C4\Sc5ccccc5C4=O)o3)ccc2O)cc1 [#01, (Z)—N-(4-Aminophenyl)-2-hydroxy-5-(5-((3-oxobenzo[b]thiophen-2(3H)-ylidene)methyl)furan-2-yl)benzamide]
